{"source": "patent US20200096496A1", "about": "“IODIDE DETECTION IN BLOOD PLASMA SAMPLES” (Faraday Pharmaceuticals, Inc., priority 2017, published 2020)", "test": "Iodide concentration in plasma of treated human volunteers by ion chromatography with amperometric detection", "format": "in vivo", "conditions": "plasma samples from human volunteers treated with various dosages of sodium iodide, protein precipitation with acetonitrile", "protocol": "Plasma samples were obtained from Bioreclamation IVT in 10 mL aliquots of frozen plasma in lithium heparin. The plasma samples were normal plasma samples obtained from healthy male and female volunteers who were not treated with iodide. The plasma samples were prepared according to the following protocol. • 0.5 mL plasma was diluted 3:1 with pure acetonitrile for protein precipitation before analysis by Amperometric detection. (ex: 0.5 mL […] plus 1.5 mL pure Acetonitrile) • Samples were mixed gently and then centrifuged at max speed (14,000 rpm or 20,817 rcf) for 2 minutes. • Supernatant was carefully removed as to not disturb protein pellet, and transferred to a clean Eppendorf tube. • Supernatants were again centrifuged at max speed for 2 minutes. • Samples were spiked as necessary with NaI to fall between 2.5 and 200 ppb NaI concentrations. • 270 μL or 1 mL volumes of samples were analyzed by Amperometric detection on IC against a standard curve in a diluent matrix.\nPlasma samples were obtained from human volunteers treated with various dosages of sodium iodide. The plasma samples were processed and sodium iodide concentrations determined essentially as described in Example 3."}
{"smiles": "[I-].[Na+]", "note": "[sodium iodide]", "values": [{"measurement": "determined serum concentrations of sodium iodide", "value": "positively correlated with dosages administered"}]}
